From patent US20240238417A1, “METHODS OF PRODUCING TUMOR VACCINES AND USES THEREOF” (priority 2021, published 2024)

What was measured:
CT26 tumor = assay: Local gNO treatment of CT26 tumor bearing mice, primary tumor; assay type: in vivo
Protocol: Mice: All in vivo experimental procedures were carried out in accordance with the protocol approved by the Ethics Committee on the Use and Care of Animals. Institutional Animal Care and Use Committee (IACUC): 67-09-2019 and IL-20-3-149. The in vivo assays were performed on Balb/c or C57BU6J mice: 7-10 weeks of age, obtained from Envigo (Ness-Ziona, Israel), unless otherwise indicated.
Inoculation of tumor cells: Cancer cell suspensions at a concentration of 2.5-10.0×10^6 cells/ml were inoculated to the right flank of mice at a dose volume of 0.1 ml. Administration was performed as soon as possible following cell suspension preparation and after manual shaking prior to inoculation. The cell suspension was then aspirated into a 1-ml syringe with a 27G needle for subcutaneous (s.c.) injection.
Test article treatment: Mice were first anesthetized by an intraperitoneal (i.p) injection of 100 mg/kg ketamine and 20 mg/kg xylazine hydrochloride solution. After 10 minutes, tumor-bearing mice were treated with the indicated dose of gNO.
In all protocols, the gas was delivered from NO in N2 cylinders. The outlet pressure was set to 2-3.5 bar using a pressure regulator that was connected directly to the cylinder.
In protocols that involve administration by needle injection, a silicone hose was connected directly to the pressure regulator on one end and to a manual or digital MFC on the other end. The flow was adjusted to 0.05 LPM-0.25 LPM. An additional silicone hose was connected to the flow controller as well as to a 23G hypodermic needle. The needle was inserted horizontally into the center of each tumor.
Tumor volume calculation: Local tumor growth was determined by measuring 3 mutually orthogonal tumor dimensions 2-3 times per week, according to the following formula:
or Tumor volume=Diameter 1× Diameter 2^2/2, unless otherwise indicated. Diameter 1 represents length, Diameter 2 represents width and Diameter 3 represents height.
BALB/c female and male mice were obtained from Almog Diagnostic that purchased them from Envigo, Israel. The mice were 7-8 weeks of age. Animal care and experimentation were performed in accordance with the Bar-Ilan University guidelines.
CT-26, a colon carcinoma cell line was induced in a BALB/c mouse by chemical carcinogenesis.
Cells were cultured in Roswell Park Memorial Institute (RPMI) 1640 supplemented with 100 U/ml penicillin, 100 μg/ml streptomycin, 2 mM L-glutamine; 1 mM sodium pyruvate; 1% non-essential amino acid solution; 10% fetal calf serum. Cultures were maintained at 37° C. in a humidified incubator with a 5% CO2 atmosphere.
Mice were inoculated subcutaneously with 5×10^5 CT-26 cells suspended in 100 μL Hank's Balanced Salt Solution (HBSS) into the low lateral side of the back. Local tumor growth was determined by measuring two mutually orthogonal tumor diameters with a caliper. The volume of the tumor was calculated using the formula: Vol=D1×D2×D2/2, where D1, D2 are two mutually orthogonal tumor diameters.
Air-1 is a female Balb/c mouse that was treated twice. On day 0 the tumor volume was 64.85 mm^3.
NO-1 is a female Balb/c mouse and was treated once. […] Then, the skin was removed from the tumor, and the tumor was re-exposed to gNO via a perforated flask filled with gNO using the same parameters.
NO-2 is a male Balb/c mouse and was treated 3 times. On day 0 the tumor volume was 38.51 mm^3. Day 0—gNO at 50,000 ppm was administered for 3.8 minutes at a flow rate of 0.9 using a cap. Day 5: gNO at 10,000 ppm was administered for 30 minutes using a cap. Then, gNO was delivered intra-tumorally by a 23G needle such as shown in FIG. 11B at 0.3 LPM for another 10 minutes, using an intra-tumoral channel. The tip of the needle was directed at the outside area. Day 11: gNO at 10,000 ppm was delivered to the tumor for 5 minutes and at a flow rate of 0.3 LPM, using a 23G needle and an intra-tumoral channel.
In an additional set of experiments, aluminum disposable gas cylinders were used. […]

LLC1 challenge tumor = assay: Challenge assay in LLC1 tumor-bearing mice; assay type: in vivo; details: 50,000 ppm NO intra-tumorally for 10 minutes; 9 days post challenge tumor inoculation
Protocol: Challenge tumor inoculation: Up to 21 days after gas treatment was applied to the primary tumor, the appropriate cancer cell suspensions were prepared as described herein and inoculation of cells was repeated on the contralateral flank of the mice. Administration was performed as soon as possible following cell suspension preparation and after manual shaking prior to withdrawal of the cell suspension.
The percentage of challenge tumor take was monitored 2-3 times a week by taking a look at the inoculated site and touching this area to look for small tumors that are not yet visible. Naïve mice inoculated with tumor cells for the first time served as an internal control.
gNO local administration was tested in a Challenge assay, as depicted in FIG. 15A, in order to evaluate whether treating the primary tumor by gNO based ablation stimulates an anti-tumor immune response that results in rejection of a secondary tumor inoculation. A secondary, “challenge”, tumor cells inoculation also serves as a metastasis model.
LLC1 tumor-bearing mice were treated with 50,000 ppm NO administered intra-tumorally by a 23G hypodermic needle for 10 minutes. Up to 2 weeks post the first gas treatment all gas-treated mice were re-inoculated with 2.5×10^5 LLC1 cells suspended in 100 μL HBSS into the left flank. Naïve mice inoculated with 5×10^5 CT-26 cells served as an internal control for cells' quality.

LLC1 cells = assay: XTT viability of LLC1 cells after gas exposure in chamber; assay type: cell-based; details: 10,000 ppm-25,000 ppm gNO for 3-15 minutes
Protocol: In vitro systems: One system involves a direct exposure of cancer cells to gNO in 96-well plate. Gaseous NO at 150 ppm-50,000 ppm was delivered at 0.3 LPM for 10 seconds—3 minutes. In another system, cancer cells were exposed to gNO in a box made of acrylic glass. Gaseous NO at 10,000-50,000 ppm was delivered at 0.9 LPM for 10 seconds—15 minutes.
The exposure of the cancer cells to gNO was done after removing the cell culture medium.
Immediately after gas exposure, cell culture medium was added, and the cells were incubated at a 37° C. and 5% CO2 incubator over-night. To test cell viability, XTT assay and Annexin V-Propidium Iodide assays were performed, according to known protocols.
The effect of continuous gaseous nitric oxide (gNO) at 10,000 ppm, 15,000 ppm, 20,000 ppm, or 25,000 ppm, compared to air (control), on the survival of LLC1 cancer cell line was tested. LLC1 cells were prepared in DMEM medium and suspended in 96-well plates. The plates were placed inside an approx. 2 liter exposure chamber. The plates were exposed to the gas by filling the chamber with gNO for 10 seconds, or 1, 3, 9 or 15 minutes. After exposure, the plates were placed in a 5% CO2, 37° C. incubator for an overnight incubation and the viability of the cells was tested by XTT assay.

For [N]=O [gNO, nitric oxide], the CT-26 tumor destruction (CT26 tumor; 10,000 ppm gNO, 0.9 LPM, 20 minutes in flask, 1-17 days post treatment) was 100%, the “tumor on photographs after treatment” value (CT26 tumor; 10,000 ppm gNO, 0.9 LPM, 20 minutes in flask, 1 minute, 9 days and 14 days post treatment) was “the tumor was destructed” and the cured mice (CT26 tumor; 25,000 ppm gNO intra-tumoral 15 minutes, 0.25 LPM, repeated a week later, 44 days post the first treatment) was 50%. The “mice with CT-26 tumor growth inhibition compared to air treatment” value (CT26 tumor; 50,000 ppm intra-tumoral 2-3 minutes 0.2 LPM, then 10,000 ppm 6 minutes intra-tumoral and 4 minutes to outer layer) was “⅔”, the “tumor on photographs after treatment” value (CT26 tumor; 200,000 ppm gNO for 2 seconds, 0.01 LPM, 9 days after treatment) was “the tumor disappeared” and the “size of air-treated tumor relative to gNO-treated tumors” value (CT26 tumor; CT26 tumors, 10,000-50,000 ppm gNO (mice NO-1, NO-2), 12 days post treatment 1) was “more than 30 times”. For the same molecule, the “development of a secondary (challenge) LLC1 tumor” value (LLC1 challenge tumor) was “none of the gas-treated mice developed a secondary tumor” and the “viability of LLC1 cells” value (LLC1 cells) was “less than 5%”.
